These are literature values, as cited in US6319951A, “Use of 3-amino-4-hydroxybenzoic acid for the treatment of retroviral infections” (priority 1996, dated 2001).

Each structure is given as a SMILES string.

Data set [1] has as its system HIV. The following applies: reported for AZT; cited from earlier work.
The test system of data set [2] is HIV. The note with it: in presence of normal serum iron; cited from earlier work.

Regarding `Cc1cn([C@H]2C[C@H](N=[N+]=[N-])[C@@H](CO)O2)c(=O)[nH]c1=O` [AZT], in the data set with HIV [1], the “reported equivalent increase in CD4” value is given as 81. Besides, the “bone marrow depression and anaemia” value with HIV [2] is “causes bone marrow depression and anaemia in presence of normal serum iron”.
